Source: patent US10757943B2, “Thidiazuron mixtures and uses thereof” (Valent BioSciences LLC, priority 2017, dated 2020)

How the values were obtained:
Type in all cases: in vivo
[1] = tested on: Red Flame seedless grape vines; experiment: Bud break and shoot length of field-grown Red Flame seedless grape vines (Example 2); details: hydrogen cyanamide 10,000 ppm, thidiazuron 300 ppm, 17-0-0 197,100 ppm
Method: To assess the ability of mixtures of the invention to promote and synchronize bud break these mixtures were applied to field-grown Red Flame seedless grape vines and examined for bud break (initiation of growth) and subsequent shoot development. Thidiazuron, hydrogen cyanamide, 17-0-0 fertilizer, and mixtures thereof were each applied individually or sequentially (co-applied) to the separate spurs of Red Flame seedless grape vines. Plants were evaluated for bud break at 31 days after treatment, for percent bud break and total new shoot length at 48 days after treatment. Results of these evaluations can be seen below in Tables 4 and 5.

[2] = tested on: Concord grape vines; experiment: Bud break and harvest weight of endo-dormant two-year-old Concord grape vines in the greenhouse (Example 4); details: thidiazuron ppm and 17-0-0 % as in label, 15-0-0 65,880 ppm
Source text: Two-year-old Concord grape vines were purchased commercially. These vines had just lost their leaves and were shipped shortly after they were dug at the nursery. Thus, the vines had not fulfilled their chilling requirement and were considered endo-dormant. The vines were potted individually into one-gallon pots containing ProMix® BX immediately upon receipt and subsequently pruned back to the five proximal buds on the one-year old wood. Within two hours of pruning, treatment solutions were applied using a foam paint brush to the remaining one-year old wood, including the cut end from pruning. Two treatments, water and hydrogen cyanimide, which acted as negative and positive controls, respectively, were included in all studies.
Treatment solutions were made fresh in water and contained 1% (v/v) non-ionic surfactant. In all cases, two treatment solutions were applied to the plants. Where a single component was used for a treatment, the first application solution was water containing surfactant; in the cases where combination treatments were made to the same plant, the first treatment solution was allowed to dry prior to applying the second.
The treated plants were kept in a conventional greenhouse under supplemental lighting. Greenhouse conditions were 65:60° F. Day:Night temperature with a 16:8 hour photoperiod. Relief from dormancy was assessed every two days during the course of the study. Dormancy was considered relieved upon the emergence of a green bud. Both the number of ‘broken buds’ per plant and the date of relief of plants from dormancy were assessed. At the close of the study, new growth was removed from each of the treated plants and weighed.

[3] = tested on: Concord grape vines; experiment: Bud break and shoot growth of potted dormant Concord grape vines in the greenhouse (Example 1); details: for % bud break (vines with at least one bud break): hydrogen cyanamide 10,000 ppm, 17-0-0 197,100 ppm, 15-0-0 239,060 ppm, ACC 1,000 ppm; for Initial to 50% Bud Break: synchrony of bud break; for 50% Bud Break (DAT): time to 50% bud break
Source text: An aqueous 50% hydrogen cyanamide solution (Sigma-Aldrich, St. Louis, Mo. USA) was used as the source of hydrogen cyanamide. The commercial product, Dormex® contains 50% hydrogen cyanamide (w/v) in water.
Erger® was used as the source of 15-0-0 fertilizer. (Erger is a registered trademark of Valagro S.P.A., Italy and is available from Helena Chemical Company, Collierville, Tenn., USA). Erger® contains 15% total nitrogen as 3.1% ammoniacal nitrogen, 5.8% nitrate nitrogen and 6.1% urea nitrogen and 3.3% calcium derived from ammonium nitrate, calcium nitrate and urea. As used herein, the term “15-0-0 fertilizer” refers to the Erger® formulation above and all formulations described in International PCT application publication WO/2001/037653A2 by Valagro S.P.A., Italy, which is incorporated, herein, in its entirety.
CAN-17 was used as the source of 17-0-0 fertilizer. CAN-17 contains 17% total nitrogen as 4.6% ammonium nitrogen and […] nitrate nitrogen and 1.3% urea nitrogen and 8.8% calcium derived from ammonium nitrate and calcium nitrate. CAN-17 is available from J.R. Simplot Company (Boise, Id., USA).
To assess the ability of mixtures of the invention to promote and synchronize bud break these mixtures were applied to Concord grape vines and examined for bud break (initiation of growth) and subsequent shoot development. Specifically, 1 year old dormant bare rooted Concord grape vines were planted in pots containing Pro-Mix® BX potting soil (Pro-Mix is a registered trademark of and available from Premier Horticulture Ltd.) and pruned to 5 nodes on a single shoot. Aqueous solutions of thidiazuron, hydrogen cyanamide, 15-0-0 fertilizer, 17-0-0 fertilizer and 1-aminocyclopropane-1-carboxylic acid (“ACC”), and mixtures thereof were each applied individually or sequentially or co-applied to the first-year wood of separate Concord grape vines. Plants were grown in the greenhouse for 49 days and evaluated for percent of vines showing bud break, or relief from dormancy, periodically between 7 days and the conclusion of the experiment. […] At 49 days after treatment (DAT), the plants were sacrificed and measured for total number of flower clusters, total new shoot length, longest new shoot, combined new shoot fresh weight and combined new shoot dry weight. New shoot growth is the growth arising from the dormant buds not including the woody growth that was planted and gave rise to the new growth.
Synergy is calculated by the Abbott method: %Cexp=A+B−(AB/100), where % Cexp is the expected efficacy and in which A and B are the speed of bud break or shoot length or shoot weight given by the single active ingredients. If the ratio between the experimentally observed efficacy of the mixture Cobs and the expected efficacy of the mixture is greater than 1, synergistic interactions are present in the mixture” (Gisi, Synergistic Interaction of Fungicides in Mixtures, The American Phytopathological Society, 86:11, 1273-1279,1996).

[4] = 49 days post treatment, thidiazuron ppm as in label, other concentrations as in Table 1
[5] = thidiazuron 300 ppm unless label states other, other concentrations as in Table 1
[6] = thidiazuron 300 ppm unless label states other, other concentrations as in Table 1, listed as hydrogen cyanamide

Compound: N#CN [Hydrogen Cyanamide, hydrogen cyanamide]
- Broken Buds per plant (Average Buds Broken per Spur) ([1]; 31 days after treatment): 0.53
- % Broken Buds ([1]; 48 days after treatment): 58.8%
- Total Shoot Length ([1]; 48 days after treatment): 25.2
- Fresh Shoot Weight (g)/Plant ([2]; new growth at close of study): 31.49 g
- 50% Bud Break (DAT) [2]: 16 DAT
- 100% Bud Break (DAT) [2]: 33 DAT
- Initial to 50% Bud Break [2]: 2
- Number of Buds Broken/Plant [2]: 1.5
- % bud break (vines with at least one bud break) ([3]; 7 DAT, thidiazuron 300 ppm unless label states other): 0%
- % bud break (vines with at least one bud break) ([3]; 10 DAT, thidiazuron 300 ppm unless label states other): 11.1%
- % bud break (vines with at least one bud break) ([3]; 13 DAT, thidiazuron 300 ppm unless label states other): 44.4%
- % bud break (vines with at least one bud break) ([3]; 15 DAT, thidiazuron 300 ppm unless label states other): 66.7%
- % bud break (vines with at least one bud break) ([3]; 17 DAT, thidiazuron 300 ppm unless label states other): 77.8%
- % bud break (vines with at least one bud break) ([3]; 20 DAT, thidiazuron 300 ppm unless label states other): 88.9%
- % bud break (vines with at least one bud break) ([3]; 22 DAT, thidiazuron 300 ppm unless label states other): 88.9%
- % bud break (vines with at least one bud break) ([3]; 24 DAT, thidiazuron 300 ppm unless label states other): 88.9%
- % bud break (vines with at least one bud break) ([3]; 27 DAT, thidiazuron 300 ppm unless label states other): 88.9%
- % bud break (vines with at least one bud break) ([3]; 29 DAT, thidiazuron 300 ppm unless label states other): 88.9%
- % bud break (vines with at least one bud break) ([3]; 31 DAT, thidiazuron 300 ppm unless label states other): 88.9%
- % bud break (vines with at least one bud break) ([3]; 34 DAT, thidiazuron 300 ppm unless label states other): 100.0%
- % bud break (vines with at least one bud break) ([3]; 36 DAT, thidiazuron 300 ppm unless label states other): 100.0%
- % bud break (vines with at least one bud break) ([3]; 38 DAT, thidiazuron 300 ppm unless label states other): 100.0%
- % bud break (vines with at least one bud break) ([3]; 41 DAT, thidiazuron 300 ppm unless label states other): 100.0%
- % bud break (vines with at least one bud break) ([3]; 43 DAT, thidiazuron 300 ppm unless label states other): 100.0%
- % bud break (vines with at least one bud break) ([3]; 49 DAT, thidiazuron 300 ppm unless label states other): 100.0%
- Combined Shoot Dry Weight [3, 4]: 9.0 g
- Combined Shoot Fresh Weight [3, 4]: 39.3 g
- Longest Shoot Length [3, 4]: 83.8 cm
- Total # of Flower Clusters [3, 4]: 0.0
- Total Shoot Length [3, 4]: 129.8 cm
- Dry Weight (g)/25% Bud Break to Harvest (d) ([3]; combined shoot dry weight at 49 DAT normalised by days from 25% bud break to harvest): 0.24 g/day
- Dry Weight (g)/50% Bud Break to Harvest (d) ([3]; combined shoot dry weight at 49 DAT normalised by days from 50% bud break to harvest): 0.26 g/day
- Fresh Weight (g)/50% Bud Break to Harvest (d) ([3]; combined shoot fresh weight at 49 DAT normalised by days from 50% bud break to harvest): 1.12 g/day
- 50% Bud Break to Harvest ([3]; harvest at day 49, thidiazuron 300 ppm unless label states other, other concentrations as in Table 1): 35 days
- Initial to 50% Bud Break [3, 5]: 5 days
- Initial to 50% Bud Break [3, 6]: ≤ 5 days
- 25% Bud Break (DAT) ([3]; time to 25% bud break, thidiazuron 300 ppm unless label states other, other concentrations as in Table 1): 11 DAT
- 50% Bud Break (DAT) [3, 5]: 14 DAT
- 50% Bud Break (DAT) [3, 6]: ≤ 14 DAT
